Here are results for 2 compounds from patent US11389424B2, “Methods and compositions for treating chemotherapy-induced diarrhea” (NAPO PHARMACEUTICALS, INC., priority 2017, dated 2022).

Data set [1] in a line: 9-month toxicity study (WIL-288022), oral (capsule) administration of enteric-coated crofelemer tablets. To be noted: dog, in vivo. The arrangement: species or system beagle dogs. On the procedure: The dose for this study was based on data obtained from a pilot study that assessed the clinical effectiveness of crofelemer (SP-303) in alleviating clinical signs associated with secretory diarrhea in dogs (CANA-001) and the wide margin of safety established in 30-day (WIL-288006) and 9-month (WIL-288022) toxicity studies. Chronic safety of crofelemer in dogs was studied in a 9-month study during which tablets were administered in capsules once daily, 7 days per week, for 273 or 274 days to three groups of beagle dogs. Dosage levels were 50, 175 and 600 mg/kg/day, plus a concurrent control group. Based on the results of this study, the no-observed-adverse-effect level (NOAEL) for oral (capsule) administration of enteric-coated crofelemer tablets to dogs for 273 or 274 consecutive days was 50 mg/kg/day. […] Thus, the no effect level is estimated to be between 50 and 175 mg/kg/day.

The subject of data set [2] is recurrent, cutaneous mast cell tumors. To be noted: cited from earlier work.

Where two headings read alike, the source gives them in different places.

As to Crofelemer, the “primary adverse effect at the higher dosages” value in data set [1] is reported as “gastrointestinal irritation”.
`Cc1[nH]c(/C=C2\C(=O)Nc3ccc(F)cc32)c(C)c1C(=O)NCCN1CCCC1.O=P(O)(O)O` [toceranib phosphate, Toceranib phosphate]: in data set [2] (end of the six-week masked phase, vs placebo 8%, p<0.001), the “objective response (primary effectiveness endpoint)” value is on record as 37%. Also, in data set [2] (masked phase), the all grade diarrhea was 46% and the “grade 3-4 diarrhea” value was 7%. In data set [2] (masked plus open label phases), the any grade diarrhea is on record as 59% and the “grade 3-4 diarrhea” value is 8%.
